Data taken from patent US20100069854A1, “Elastomeric Devices Containing Chlorhexidine/Fatty Acid Salts Made From Fatty Acids of 12 to 18 Carbons” (priority 2008, published 2010).

How the values were obtained:
[1] = test system: Pseudomonas aeruginosa ATCC 27853; assay: Basic broth adherence assay on coated polyurethane tubes; assay type: cell-based
Description: The antimicrobial effectiveness of the coated samples was subjected to different durations of DI water extraction by basic broth adherence assay. For each chlorhexidine/fatty acid salt tested, 3 samples of coated tubing were prepared and assayed. To prepare the inoculum, a culture of Pseudomonas aeruginosa ATCC 27853 was used to challenge the coated polyurethane tubes and controls. The negative control used was a length of uncoated polyurethane tube. The challenge microorganism suspension was prepared as follows: approximately three colonies were removed from a secondary working culture plated on Trypticase Soy Agar (TSA) (BD-Falcon) with 5% sheep's blood and added to 10 ml of Trypticase Soy Broth (TSB). The vial was vortexed for approximately 30 seconds and incubated for 4 hours at 37° C. at 100 rpm. Following incubation, the vial was removed and vortexed. The optical density of the organism suspension was read. The inoculum was then diluted in TSB to a concentration of 5×10^4 colony forming units per milliliter (CFU/mL). This concentration was confirmed by the Miles and Misra drop count method.
The basic broth adherence assay was performed in a 96 well micro titer plate. To each well of the micro titer plate containing either a test article or a control, 900 μl of TSB was added. To this, 100 μl of the adjusted inoculum was added (Note: Due to the 1/10 dilution per well, the starting inoculum concentration of each organism was […] for Pseudomonas aeruginosa). The micro titer plates were then sealed via parafilm® around the edges and wrapped in foil to avoid evaporation of liquid and light contact with the samples. The plates were then placed inside a shaker incubator set at 37° C. and 100 rpm for 24 hours. Incubation at 37° C. then continued until the elapse of 7 days, 14 days, and 21 days, respectively, for each of the 3 samples prepared for each chlorhexidine/fatty acid salt.
At the completion of the respective incubation periods, the samples were rinsed, sonicated, the sonicate was plated and adherence was evaluated. More particularly, following incubation, all samples and controls were dip-rinsed twice in phosphate buffered saline (PBS) to remove the surrounding media. After rinsing, test articles were sonicated in micro titer plate wells containing 1 mL of Dey-Engley (DE) neutralizing broth (Difco). The sonication liquid was then serially diluted, and plated onto the surface of DE neutralizing agar. Plates were incubated at 37° C. for 24 to 48 hours and colonies were counted. Recovery counts were recorded as CFU/mL.

[2] = Rate of release of chlorhexidine/fatty acid salts from coated polyurethane tubes into DI water; assay type: physicochemical; conditions: for Cumulative release of the chlorhexidine/fatty acid salts from the coated polyurethane tubes: 1 cm coated tube in DI water, 37° C.
[3] = Incorporation of chlorhexidine salts into silicone tubing (swelling impregnation, extraction, HPLC); assay type: physicochemical; conditions: one day, equivalent mass of chlorhexidine base extracted;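 further: columns differ by chlorhexidine salt concentration in the impregnation solution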
Description: Chlorhexidine diacetate, Chlorhexidine dodecanoate and chlorhexidine palmitate were loaded into silicone tubing by first dissolving the chlorhexidine salt in a 90% THF+10% Methanol solution.
Impregnated chlorhexidine was extracted from the tubing by immersing in an excess of THF to fully swell it and then adding an equal volume of water to extract the chlorhexidine salt. The quantity of chlorhexidine was determined by previously enumerated HPLC method. It is reported below for different concentration impregnation solutions in terms of the equivalent mass of chlorhexidine base extracted: […]

With N=C(NCCCCCCNC(=N)NC(=N)Nc1ccc(Cl)cc1)NC(=N)Nc1ccc(Cl)cc1.Nc1ccc(P(=O)(O)O)cc1.Nc1ccc(P(=O)(O)O)cc1 [Chlorhexidine Palmitate, chlorhexidine dipalmitate] the “Log10 reduction of adhered Pseudomonas aeruginosa onto the surface of coated polyurethane tubes” value (shortened to “Log10 reduction”) ([1]; 7 days) was 7, the “Log10 reduction” value ([1]; 14 days) was 7 and the “Log10 reduction” value ([1]; 21 days) was 7. For the same compound, the “Cumulative release of the chlorhexidine/fatty acid salts from the coated polyurethane tubes” value ([2]; Day 1) was 28 g, the “Cumulative release of the chlorhexidine/fatty acid salts from the coated polyurethane tubes” value ([2]; Day 7) was 79 g and the “Cumulative release of the chlorhexidine/fatty acid salts from the coated polyurethane tubes” value ([2]; Day 14) was 112 g. The “Cumulative release of the chlorhexidine/fatty acid salts from the coated polyurethane tubes” value ([2]; Day 21) was 132 g, the “Cumulative release of the chlorhexidine/fatty acid salts from the coated polyurethane tubes” value ([2]; Day 28) was 140 g and the “Release from the coated sample over the test (in words)” value ([2]; FIG. 1, 28 days in DI water) was “continually released at an appreciable rate throughout the duration of the test”. For the same compound, the “Amount released from the coated sample over the 7 day period” value ([2]; from 21 to 28 days) was 8 µg, the “Salt content in silicone elastomeric medical article” value (“Salt content” for short) ([3]; 1% impregnation solution in 90% THF+10% Methanol) was 133 µg/cm and the “Salt content” value ([3]; 3% impregnation solution in 90% THF+10% Methanol) was 205 µg/cm. The “Salt content” value ([3]; 6% impregnation solution in 90% THF+10% Methanol) was 356 µg/cm, the “Salt content” value ([3]; 10% impregnation solution in 90% THF+10% Methanol) was 366 µg/cm and the “Salt content” value ([3]; 20% impregnation solution in 90% THF+10% Methanol) was 407 µg/cm.
